In paper doi:10.64898/2025.12.31.697154v2, “Two phytohormones synergistically induce parasitic weeds seed germination via KAI2d receptors” (biorxiv, 2026):

Legend:
[1] = test system: T1, OmKAI2d10–OmSMAX1D1M; test: TR-FRET, ligand-induced KAI2d–SMAX1 D1M interaction; type: biochemical, Orobanche minor; conditions: without rac-GR24; 300 min
T1 construct: gene KAI2d10; KAI2d10 plus SMAX1 D1M domain only; ligand-induced complex in TR-FRET; borders and tags not given

[2] = target: T2, OmKAI2d3; test: isothermal titration calorimetry; type: binding, Orobanche minor; conditions: suggested allosteric site
T2 construct: gene KAI2d3; soluble recombinant protein

[3] = test system: T3, OmKAI2d3–OmSMAX1D1M; test: TR-FRET, ligand-induced KAI2d–SMAX1 D1M interaction; type: biochemical, Orobanche minor; conditions: without rac-GR24; 300 min
T3 construct: gene KAI2d3; KAI2d3 plus SMAX1 D1M domain only; ligand-induced complex in TR-FRET; borders and tags not given

[4] = test system: T4, OmKAI2d9–OmSMAX1D1M; test: as above; type: biochemical, Orobanche minor; conditions: without rac-GR24; 300 min
T4 construct: gene KAI2d9; KAI2d9 plus SMAX1 D1M domain only; ligand-induced complex in TR-FRET; borders and tags not given

CC/C=C\C[C@@H]1C(=O)C=C[C@@H]1CCCCCCCC(=O)O [cis-OPDA]
EC50 [1]: 104 µM | Kd [2]: 19.8 µM | EC50 [3]: 217 µM | EC50 [4]: 197 µM
